Reference: US11000033B2, “Ketone or oxime compound, and herbicide” (NISSAN CHEMICAL CORPORATION, priority 2014, dated 2021)

Key:
Assay type in all cases: in vivo
[1] = tested on: Echinochloa crus-galli var. crus-galli; experiment: Test Example 3: herbicidal effect by foliage application, Wagner pot (symbol H); conditions: application herbicide amount 320 g/ha, Table 24
Summary of the method: (§1)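 In a shallow-flooded alluvial soil system held at 25–30 °C, plants including rice grew for 14 days and were then sprayed over the foliage with emulsion diluted to a fixed herbicide amount. Visual rating followed at 3 weeks.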

[2] = tested on: Chenopodium album; experiment: Test Example 5: herbicidal effect by foliage application, plastic box (symbol O); conditions: 320 g/ha, 3 weeks after application
Summary of the method: (§2)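 Seeds were sown in sterilized diluvial soil, covered with about 1.5 cm of soil and grown 14 days in a greenhouse at 25° C. to 30° C. An emulsifiable formulation diluted in water to a set rate was sprayed over foliage, and injury was scored 3 weeks later.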

[3] = tested on: Amaranthus retroflexus; experiment: Test Example 5: herbicidal effect by foliage application, plastic box (symbol N); conditions: 320 g/ha, 3 weeks after application
Summary of the method: as §2

[4] = tested on: Echinochloa oryzacola Vasing.; experiment: Test Example 2: herbicidal activity, application during weed generation in submerged conditions (symbol A); conditions: Table 23; application herbicide amount 320 g/ha; grade 0-5 by criteria of Test Example 1
Summary of the method: (§3)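 Compound was applied as a water-diluted emulsion into the standing water of flooded pots (4 cm) once co-sown weeds reached one to two leaves. Greenhouse temperature was 25° C. to 30° C., soil was alluvial, and each species was rated visually after 3 weeks.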

[5] = tested on: Alopecurus myosuroides; experiment: Test Example 4: herbicidal effect by soil treatment (symbol J); conditions: application herbicide amount 320 g/ha
Summary of the method: (§4)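 Seeds were sown in sterilized diluvial soil, covered with about 1.5 cm of soil, and the soil surface was sprayed with a water-diluted emulsion of the compound at a predetermined rate. Plants grew in a greenhouse at 25° C. to 30° C.; effects were scored visually 3 weeks after application.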

[6] = tested on: beet; experiment: Test Example 4: effect on crop by soil treatment (symbol f); conditions: application herbicide amount 320 g/ha
Summary of the method: (§5)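 Crop seeds, among them rice, wheat, beet and rapeseed, were sown in sterilized diluvial soil and covered with about 1.5 cm of soil. Boxes were kept in a greenhouse at 25° C. to 30° C. for plant growth.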

[7] = tested on: Abutilon theophrasti; experiment: Test Example 5: herbicidal effect by foliage application, plastic box (symbol M); conditions: 320 g/ha, 3 weeks after application
Summary of the method: as §2

[8] = tested on: Setaria viridis; experiment: Test Example 5: herbicidal effect by foliage application, plastic box (symbol G); conditions: 320 g/ha, 3 weeks after application
Summary of the method: as §2

[9] = tested on: Amaranthus retroflexus; experiment: Test Example 4: herbicidal effect by soil treatment (symbol N); conditions: application herbicide amount 320 g/ha
Summary of the method: as §4

[10] = tested on: wheat; experiment: Test Example 4: effect on crop by soil treatment (symbol e); conditions: application herbicide amount 320 g/ha
Summary of the method: as §5

[11] = tested on: beet; experiment: Test Example 5: effect on crop by foliage application, plastic box (symbol f); conditions: 320 g/ha, 3 weeks after application
Summary of the method: (§6)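 Foliage-application test plants come from spot sowing in sterilized diluvial soil under a soil layer of about 1.5 cm, grown at 25° C. to 30° C. in a greenhouse.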

[12] = tested on: rice plant; experiment: Test Example 5: effect on crop by foliage application, plastic box (symbol b); conditions: 320 g/ha, 3 weeks after application
Summary of the method: as §6

[13] = tested on: Echinochloa crus-galli var. crus-galli; experiment: Test Example 4: herbicidal effect by soil treatment (symbol H); conditions: application herbicide amount 320 g/ha
Summary of the method: as §4

[14] = tested on: Veronica persica; experiment: Test Example 5: herbicidal effect by foliage application, plastic box (symbol R); conditions: 320 g/ha, 3 weeks after application
Summary of the method: as §2

[15] = tested on: Stellaria media; experiment: Test Example 5: herbicidal effect by foliage application, plastic box (symbol P); conditions: 320 g/ha, 3 weeks after application
Summary of the method: as §2

[16] = tested on: soybean; experiment: Test Example 4: effect on crop by soil treatment (symbol d); conditions: application herbicide amount 320 g/ha
Summary of the method: as §5

[17] = tested on: Lolium multiflorum Lam.; experiment: Test Example 4: herbicidal effect by soil treatment (symbol K); conditions: application herbicide amount 320 g/ha
Summary of the method: as §4

[18] = tested on: Scirpus juncoides; experiment: Test Example 2: herbicidal activity, application during weed generation in submerged conditions (symbol B); conditions: Table 23; application herbicide amount 320 g/ha; grade 0-5 by criteria of Test Example 1
Summary of the method: as §3

[19] = tested on: Chenopodium album; experiment: Test Example 4: herbicidal effect by soil treatment (symbol O); conditions: application herbicide amount 320 g/ha
Summary of the method: as §4

[20] = tested on: Cyperus difformis; experiment: Test Example 3: herbicidal effect by foliage application, Wagner pot (symbol E); conditions: application herbicide amount 320 g/ha, Table 24
Summary of the method: as §1

CON=C(CC1CC(OC(=O)N2CCOCC2)=C(c2c(C)cc(C)cc2OC)C1=O)C1CC1 (mixture of isomers) [13-005]
H (Echinochloa crus-galli var. crus-galli) herbicidal effect grade [1]: 5 (Herbicidal ratio of 90% or more (almost completely withered))
O: Chenopodium album, herbicidal effect grade [2]: 0 (Herbicidal ratio of 5% or lower (almost no effect))
N: Amaranthus retroflexus, herbicidal effect grade [3]: 0 (Herbicidal ratio of 5% or lower (almost no effect))
Herbicidal effect grade, A: Echinochloa oryzacola Vasing. [4]: 5 (Herbicidal ratio of 90% or more (almost completely withered))
J: Alopecurus myosuroides, herbicidal effect grade [5]: 4 (Herbicidal ratio of 70% or higher and lower than 90%)
f: beet, effect on crop grade [6]: 0 (Herbicidal ratio of 5% or lower (almost no effect))
M: Abutilon theophrasti, herbicidal effect grade [7]: 0 (Herbicidal ratio of 5% or lower (almost no effect))
G: Setaria viridis, herbicidal effect grade [8]: 5 (Herbicidal ratio of 90% or more (almost completely withered))
N: Amaranthus retroflexus, herbicidal effect grade [9]: 0 (Herbicidal ratio of 5% or lower (almost no effect))
e: wheat, effect on crop grade [10]: 1 (Herbicidal ratio of 5% or higher and lower than 20%)
f: beet, effect on crop grade [11]: 0 (Herbicidal ratio of 5% or lower (almost no effect))
b: directly sowed rice plant, effect on crop grade [12]: 5 (Herbicidal ratio of 90% or more (almost completely withered))
H: Echinochloa crus-galli var. crus-galli, herbicidal effect grade [13]: 1 (Herbicidal ratio of 5% or higher and lower than 20%)
R: Veronica persica, herbicidal effect grade [14]: 0 (Herbicidal ratio of 5% or lower (almost no effect))
P: Stellaria media, herbicidal effect grade [15]: 0 (Herbicidal ratio of 5% or lower (almost no effect))
d: soybean, effect on crop grade [16]: 0 (Herbicidal ratio of 5% or lower (almost no effect))
K: Lolium multiflorum Lam., herbicidal effect grade [17]: 5 (Herbicidal ratio of 90% or more (almost completely withered))
Herbicidal effect grade, B: Scirpus juncoides [18]: 2 (Herbicidal ratio of 20% or higher and lower than 40%)
O: Chenopodium album, herbicidal effect grade [19]: 0 (Herbicidal ratio of 5% or lower (almost no effect))
E herbicidal effect grade [20]: 5 (Herbicidal ratio of 90% or more (almost completely withered))

Cc1cc(Br)cc(C)c1C1=C(O)CC(CC(=O)C(C)C)C1=O (racemic) [10-003]
H (Echinochloa crus-galli var. crus-galli) herbicidal effect grade [1]: 5 (Herbicidal ratio of 90% or more (almost completely withered))
O: Chenopodium album, herbicidal effect grade [2]: 0 (Herbicidal ratio of 5% or lower (almost no effect))
N: Amaranthus retroflexus, herbicidal effect grade [3]: 0 (Herbicidal ratio of 5% or lower (almost no effect))
Herbicidal effect grade, A: Echinochloa oryzacola Vasing. [4]: 3 (Herbicidal ratio of 40% or higher and lower than 70%)
Herbicidal effect grade, J: Alopecurus myosuroides [5]: 3 (Herbicidal ratio of 40% or higher and lower than 70%)
Effect on crop grade, f: beet [6]: 0 (Herbicidal ratio of 5% or lower (almost no effect))
M: Abutilon theophrasti, herbicidal effect grade [7]: 0 (Herbicidal ratio of 5% or lower (almost no effect))
G: Setaria viridis, herbicidal effect grade [8]: 5 (Herbicidal ratio of 90% or more (almost completely withered))
Herbicidal effect grade, N: Amaranthus retroflexus [9]: 0 (Herbicidal ratio of 5% or lower (almost no effect))
Effect on crop grade, e: wheat [10]: 0 (Herbicidal ratio of 5% or lower (almost no effect))
f: beet, effect on crop grade [11]: 0 (Herbicidal ratio of 5% or lower (almost no effect))
b: directly sowed rice plant, effect on crop grade [12]: 4 (Herbicidal ratio of 70% or higher and lower than 90%)
Herbicidal effect grade, H: Echinochloa crus-galli var. crus-galli [13]: 5 (Herbicidal ratio of 90% or more (almost completely withered))
R: Veronica persica, herbicidal effect grade [14]: 0 (Herbicidal ratio of 5% or lower (almost no effect))
P: Stellaria media, herbicidal effect grade [15]: 0 (Herbicidal ratio of 5% or lower (almost no effect))
Effect on crop grade, d: soybean [16]: 0 (Herbicidal ratio of 5% or lower (almost no effect))
Herbicidal effect grade, K: Lolium multiflorum Lam. [17]: 4 (Herbicidal ratio of 70% or higher and lower than 90%)
Herbicidal effect grade, B: Scirpus juncoides [18]: 0 (Herbicidal ratio of 5% or lower (almost no effect))
Herbicidal effect grade, O: Chenopodium album [19]: 0 (Herbicidal ratio of 5% or lower (almost no effect))
E herbicidal effect grade [20]: 0 (Herbicidal ratio of 5% or lower (almost no effect))

Cc1cc(Br)cc(C)c1C1=C(O)CC(CC(=O)C2CC2)C1=O (racemic) [10-004]
H (Echinochloa crus-galli var. crus-galli) herbicidal effect grade [1]: 5 (Herbicidal ratio of 90% or more (almost completely withered))
O: Chenopodium album, herbicidal effect grade [2]: 0 (Herbicidal ratio of 5% or lower (almost no effect))
N: Amaranthus retroflexus, herbicidal effect grade [3]: 0 (Herbicidal ratio of 5% or lower (almost no effect))
Herbicidal effect grade, A: Echinochloa oryzacola Vasing. [4]: 5 (Herbicidal ratio of 90% or more (almost completely withered))
Herbicidal effect grade, J: Alopecurus myosuroides [5]: 5 (Herbicidal ratio of 90% or more (almost completely withered))
Effect on crop grade, f: beet [6]: 0 (Herbicidal ratio of 5% or lower (almost no effect))
M: Abutilon theophrasti, herbicidal effect grade [7]: 3 (Herbicidal ratio of 40% or higher and lower than 70%)
G: Setaria viridis, herbicidal effect grade [8]: 5 (Herbicidal ratio of 90% or more (almost completely withered))
Herbicidal effect grade, N: Amaranthus retroflexus [9]: 0 (Herbicidal ratio of 5% or lower (almost no effect))
Effect on crop grade, e: wheat [10]: 0 (Herbicidal ratio of 5% or lower (almost no effect))
f: beet, effect on crop grade [11]: 0 (Herbicidal ratio of 5% or lower (almost no effect))
b: directly sowed rice plant, effect on crop grade [12]: 5 (Herbicidal ratio of 90% or more (almost completely withered))
Herbicidal effect grade, H: Echinochloa crus-galli var. crus-galli [13]: 5 (Herbicidal ratio of 90% or more (almost completely withered))
R: Veronica persica, herbicidal effect grade [14]: 3 (Herbicidal ratio of 40% or higher and lower than 70%)
P: Stellaria media, herbicidal effect grade [15]: 0 (Herbicidal ratio of 5% or lower (almost no effect))
Effect on crop grade, d: soybean [16]: 0 (Herbicidal ratio of 5% or lower (almost no effect))
Herbicidal effect grade, K: Lolium multiflorum Lam. [17]: 5 (Herbicidal ratio of 90% or more (almost completely withered))
Herbicidal effect grade, B: Scirpus juncoides [18]: 0 (Herbicidal ratio of 5% or lower (almost no effect))
Herbicidal effect grade, O: Chenopodium album [19]: 0 (Herbicidal ratio of 5% or lower (almost no effect))
E herbicidal effect grade [20]: 5 (Herbicidal ratio of 90% or more (almost completely withered))

COc1cc(Br)cc(C)c1C1=C(O)CC(CC(=O)C2CC2)C1=O (racemic) [14-001]
H (Echinochloa crus-galli var. crus-galli) herbicidal effect grade [1]: 5 (Herbicidal ratio of 90% or more (almost completely withered))
O: Chenopodium album, herbicidal effect grade [2]: 0 (Herbicidal ratio of 5% or lower (almost no effect))
N: Amaranthus retroflexus, herbicidal effect grade [3]: 0 (Herbicidal ratio of 5% or lower (almost no effect))
Herbicidal effect grade, A: Echinochloa oryzacola Vasing. [4]: 5 (Herbicidal ratio of 90% or more (almost completely withered))
J: Alopecurus myosuroides, herbicidal effect grade [5]: 5 (Herbicidal ratio of 90% or more (almost completely withered))
f: beet, effect on crop grade [6]: 0 (Herbicidal ratio of 5% or lower (almost no effect))
M: Abutilon theophrasti, herbicidal effect grade [7]: 4 (Herbicidal ratio of 70% or higher and lower than 90%)
G: Setaria viridis, herbicidal effect grade [8]: 5 (Herbicidal ratio of 90% or more (almost completely withered))
N: Amaranthus retroflexus, herbicidal effect grade [9]: 0 (Herbicidal ratio of 5% or lower (almost no effect))
e: wheat, effect on crop grade [10]: 0 (Herbicidal ratio of 5% or lower (almost no effect))
f: beet, effect on crop grade [11]: 0 (Herbicidal ratio of 5% or lower (almost no effect))
b: directly sowed rice plant, effect on crop grade [12]: 5 (Herbicidal ratio of 90% or more (almost completely withered))
H: Echinochloa crus-galli var. crus-galli, herbicidal effect grade [13]: 5 (Herbicidal ratio of 90% or more (almost completely withered))
R: Veronica persica, herbicidal effect grade [14]: 2 (Herbicidal ratio of 20% or higher and lower than 40%)
P: Stellaria media, herbicidal effect grade [15]: 0 (Herbicidal ratio of 5% or lower (almost no effect))
d: soybean, effect on crop grade [16]: 0 (Herbicidal ratio of 5% or lower (almost no effect))
K: Lolium multiflorum Lam., herbicidal effect grade [17]: 5 (Herbicidal ratio of 90% or more (almost completely withered))
Herbicidal effect grade, B: Scirpus juncoides [18]: 0 (Herbicidal ratio of 5% or lower (almost no effect))
O: Chenopodium album, herbicidal effect grade [19]: 0 (Herbicidal ratio of 5% or lower (almost no effect))
E herbicidal effect grade [20]: 5 (Herbicidal ratio of 90% or more (almost completely withered))
